Data as given in publication PMC9207808 (ACS Chemical Biology, 2022).
“Also recorded” adds a separate entry of the source. Residues, ends and D or L forms follow the SMILES beside them.

Experiments:
DocSTm [1] = assay: Differential scanning fluorimetry (thermal stabilisation of Doc); format: binding, S. Typhimurium; conditions: for melting temperature shift ΔTm: DSF, DocSTm 5 μM, analyte 50 μM, Tm with analyte minus Tm of free DocSTm (42.9 ± 0.9 °C), SYPRO Orange, 20 mM K2HPO4, 50 mM (NH4)2SO4, pH 8.0, triplicate; for Average Tm: average of 3 replicates
Protocol: Experiments were performed in a Mx3005P qPCR System (Agilent) collecting fluorescence data with a temperature ramp of 25 to 95 °C. Samples were prepared in a buffer containing 20 mM K2HPO4 and 50 mM (NH4)2SO4 at pH 8.0. The SYPRO Orange dye (Sigma-Aldrich, 5000× stock in DMSO) was used to monitor protein denaturation and was diluted to a final concentration of 3×. For binding experiments, the final concentration of Doc was 5 μM. Each condition was performed in triplicate (ESI section 4) and the melting curves were plotted using GraphPad Prism 5 (GraphPad Software, U.S.A.). The melting temperatures were obtained by fitting the sigmoidal section of the curves to a Boltzmann sigmoid function.

DocSTm [2] = assay: Surface plasmon resonance binding to immobilised Doc; design: species or system S. Typhimurium; conditions: for koff × 10^-6 / kon × 10^6: 1:1 kinetic fit, mean ± SD of at least 3 replicates; for kon × 10^6: single-cycle kinetics (multicycle for PhdSTm1-73); for Half-life of the complex: t1/2 = ln2 / koff
Protocol: Experiments were performed in a Biacore S200 (Cytiva) with a Series S sensor chip NTA (Cytiva). The data was analyzed using the Biacore Evaluation Software (Cytiva) and curves were plotted using GraphPad Prism 5 (GraphPad Software, U.S.A.). All experiments were performed at 22 °C with a running buffer containing 10 mM HEPES, 500 mM NaCl, 50 μM EDTA, and 0.005% (v/v) TWEEN 20 at pH 8.0. The surface was conditioned following the standard manufacturer’s guidelines and protein immobilization was performed with a 30–60 s pulse (flow rate of 5 μL/min) of Doc (150 nM) in running buffer. […] Surface regeneration was performed with a 1 min pulse of 0.5 M imidazole followed by a 1 min pulse of 0.35 M of EDTA at pH 8.0.
Binding to Doc was performed using a multicycle kinetics (MCK) setup for peptides 7, 10, and 14, while the remaining samples were tested using a single-cycle kinetics (SCK) setup. The surface was fully regenerated in between each analyte in both cases. In the MCK experiments, increasing concentrations of each analyte were injected with an 80 s pulse (30 μL/min) and dissociation times varied depending on the time required to fully dissociate the complex. The double-referenced sensorgrams (raw data subtracted from a blank injection and reference surface responses) were analyzed using a kinetic and/or a steady-state 1:1 binding model. In the SCK experiments, typically six concentrations of each analyte were sequentially injected with 80 s pulses (30 μL/min), and dissociation times varied depending on the time required to dissociate at least 5% of the complex. The double-referenced sensorgrams were fitted using a kinetic 1:1 binding model.
At least three independent replicates were measured for each analyte (ESI section 5). When a steady-state fit was applied, the reported Kd and its uncertainty correspond, respectively, to the average and standard deviations of the Kd obtained in each measurement. When a kinetic fit was applied, the reported rate constants (kon and koff) and their uncertainties correspond, respectively, to the average and standard deviations of the rate constants obtained in each measurement. In this case, reported Kd were calculated using the equation below, and the standard deviation of the rate constants was propagated. [drawing 1]

DocSTm [3] = assay: Dot blot phosphorylation assay (EF-Tu phosphorylation by Doc); format: biochemical, S. Typhimurium; conditions: α-pThr, DocSTm 1 μM, EF-TuSTm 3 μM, ATP 1 mM, inhibitor 10 μM to 5 nM (3-fold dilutions), 16 h at RT
Protocol: Samples were prepared to a final volume of 10 μL. […] Samples were incubated for 16 h at RT and subsequently spotted on a nitrocellulose membrane. Phosphorylated EF-Tu was detected by immunodecoration using a rabbit monoclonal antiphosphothreonine antibody (Abcam, ab218195) at 1:2000 dilution (1 h at 4 °C), followed by incubation with a goat antirabbit IgG (H+L) HRP conjugate antibody (Advansta) at 1:10 000 dilution (1 h at RT). Chemiluminescence was developed using the HRP Luminata kit (Merck, WBLUR0100) and captured by an ImageQuant LAS4000 Western blot imaging system (Cytiva).

[4] = DocSTm 5 µM + 50 µM binder, replicate 1
[5] = DocSTm 5 µM + 50 µM binder, replicate 2
[6] = DocSTm 5 µM + 50 µM binder, replicate 3
[7] = SPR, kinetic fit, KD calculated from mean koff and kon, SD propagated, 22 °C, pH 8.0

| Compound | melting temperature shift ΔTm (DocSTm [1]) [°C] | Average Tm (DocSTm [1]; DocSTm 5 µM + 50 µM binder) [°C] | Tm (DocSTm [1]; [4]) [°C] | Tm (DocSTm [1]; [5]) [°C] | Tm (DocSTm [1]; [6]) [°C] | Average Tm (DocSTm [1]; DocSTm 5 µM + 100 µM peptide) [°C] | Tm (DocSTm [1]; DocSTm 5 µM + 100 µM peptide, replicate 1) [°C] | Tm (DocSTm [1]; DocSTm 5 µM + 100 µM peptide, replicate 2) [°C] | Tm (DocSTm [1]; DocSTm 5 µM + 100 µM peptide, replicate 3) [°C] | binding to DocSTm by SPR (in words) (DocSTm [2]; SPR) | inhibition of EF-TuSTm phosphorylation by DocSTm (in words) (DocSTm [3]) | fold decrease in affinity (given as decrease/loss in Kd) compared with peptide 1 (DocSTm [2]; SPR Kd relative to wild-type peptide 1) [fold] | Kd (DocSTm [2]; SPR kinetic fit, replicate 1) [nM] | Kd (DocSTm [2]; SPR kinetic fit, replicate 2) [nM] | Kd (DocSTm [2]; SPR kinetic fit, replicate 3) [nM] | koff × 10^-6 (DocSTm [2]; SPR, 22 °C, pH 8.0) | kon × 10^6 (DocSTm [2]; SPR, 22 °C, pH 8.0) | Kd (DocSTm [2]; [7]) [nM] | Half-life of the complex (DocSTm [2]) [h] | Kd (DocSTm [2]; SPR kinetic fit, replicate 4) [nM] |
| --- | --- | --- | --- | --- | --- | --- | --- | --- | --- | --- | --- | --- | --- | --- | --- | --- | --- | --- | --- | --- |
| Ac-WNELRELADK-OH [compound 25] | 1.3 ± 0.9 | 44.2 ± 0.1 | 44.1 | 44.2 | 44.4 | 43.3 ± 0.1 | 43.2 | 43.2 | 43.4 | Affinity was too weak to be determined by SPR; also recorded: no measurable affinities could be obtained by SPR | inactive | – | – | – | – | – | – | – | – | – |
| CC[C@H](C)[C@H](NC(=O)[C@H](C)NC(=O)[C@H](C)NC(=O)[C@H](Cc1ccccc1)NC(=O)[C@H](Cc1c[nH]c2ccccc12)NC(C)=O)C(=O)N[C@@H](CCSC)C(=O)N[C@@H](C)C(=O)N[C@H](C(=O)N[C@@H](Cc1c[nH]cn1)C(=O)NCC(=O)N[C@@H](CC(N)=O)C(=O)N[C@@H](CCC(=O)O)C(=O)N[C@@H](CC(C)C)C(=O)N[C@@H](CCCNC(=N)N)C(=O)N[C@@H](CCC(=O)O)C(=O)N[C@@H](CC(C)C)C(=O)O)C(C)C [peptide 23] (Ac-WFAAIMAVHGNELREL-OH; N-terminus and C-terminus assumed) | 7.9 ± 1.0 | 50.7 ± 0.3 | 50.54 | 50.60 | 51.08 | – | – | – | – | – | inactive in all concentrations tested; also recorded: poor DocSTm inhibitors | 30 | 1.85 | 1.94 | 2.18 | 2794 ± 42 ×10^-6 s-1 | 1.413 ± 0.136 ×10^6 M-1 s-1 | 1.98 ± 0.193 | 0.069 ± 0.001 | – |
| CC[C@H](C)[C@H](NC(=O)[C@H](C)NC(=O)[C@H](C)NC(=O)[C@H](Cc1ccccc1)NC(=O)[C@H](CCC(=O)O)NC(=O)[C@H](CC(=O)O)NC(=O)[C@H](CC(=O)O)NC(=O)[C@H](CCSC)NC(=O)[C@H](Cc1c[nH]c2ccccc12)NC(C)=O)C(=O)N[C@@H](CCSC)C(=O)N[C@@H](C)C(=O)N[C@H](C(=O)N[C@@H](Cc1c[nH]cn1)C(=O)NCC(=O)N[C@@H](CC(N)=O)C(=O)N[C@@H](CCC(=O)O)C(=O)N[C@@H](CC(C)C)C(=O)N[C@@H](CCCNC(=N)N)C(=O)N[C@@H](CCC(=O)O)C(=O)N[C@@H](CC(C)C)C(=O)N[C@@H](C)C(=O)N[C@@H](CC(=O)O)C(=O)N[C@@H](C)C(=O)O)C(C)C [peptide 19] (Ac-WMDDEFAAIMAVHGNELRELADA-OH; C-terminus assumed) | 25.2 ± 1.1 | 68.0 ± 0.6 | 68.8 | 67.6 | 67.7 | – | – | – | – | – | inhibited DocSTm at similar concentrations to peptide 1 | – | 0.101 | 0.0634 | 0.1 | 126 ± 11 ×10^-6 s-1 | 1.441 ± 0.462 ×10^6 M-1 s-1 | 0.087 ± 0.029 | 1.5 ± 0.1 | 0.103 |
| CC[C@H](C)[C@H](NC(=O)[C@H](C)NC(=O)[C@H](C)NC(=O)[C@H](Cc1ccccc1)NC(=O)[C@H](CCC(=O)O)NC(=O)[C@H](Cc1c[nH]c2ccccc12)NC(C)=O)C(=O)N[C@@H](CCSC)C(=O)N[C@@H](C)C(=O)N[C@H](C(=O)N[C@@H](Cc1c[nH]cn1)C(=O)NCC(=O)N[C@@H](CC(N)=O)C(=O)N[C@@H](CCC(=O)O)C(=O)N[C@@H](CC(C)C)C(=O)N[C@@H](CCCNC(=N)N)C(=O)N[C@@H](CCC(=O)O)C(=O)N[C@@H](CC(C)C)C(=O)N[C@@H](C)C(=O)O)C(C)C [peptide 22] (Ac-WEFAAIMAVHGNELRELA-OH; N-terminus and C-terminus assumed) | 16.3 ± 0.9 | 59.2 ± 0.3 | 58.89 | 59.16 | 59.42 | – | – | – | – | – | severe loss of inhibitory activity; also recorded: poor DocSTm inhibitors | – | 0.342 | 0.336 | 0.365 | 503 ± 16 ×10^-6 s-1 | 1.449 ± 0.085 ×10^6 M-1 s-1 | – | 0.38 ± 0.01 | – |
| CC[C@H](C)[C@H](NC(=O)[C@H](C)NC(=O)[C@H](C)NC(=O)[C@H](Cc1ccccc1)NC(=O)[C@H](CCC(=O)O)NC(=O)[C@H](CC(=O)O)NC(=O)[C@H](CC(=O)O)NC(=O)[C@H](CCSC)NC(=O)[C@H](Cc1c[nH]c2ccccc12)NC(C)=O)C(=O)N[C@@H](CCSC)C(=O)N[C@@H](C)C(=O)N[C@H](C(=O)N[C@@H](Cc1c[nH]cn1)C(=O)N[C@@H](C)C(=O)N[C@@H](CC(N)=O)C(=O)N[C@@H](CCC(=O)O)C(=O)N[C@@H](CC(C)C)C(=O)N[C@@H](CCCNC(=N)N)C(=O)N[C@@H](CCC(=O)O)C(=O)N[C@@H](CC(C)C)C(=O)N[C@@H](C)C(=O)N[C@@H](CC(=O)O)C(=O)N[C@@H](CCCCN)C(=O)O)C(C)C [peptide 11] (Ac-WMDDEFAAIMAVHANELRELADK-OH; C-terminus assumed) | – | 69.0 ± 0.2 | 68.8 | 69.2 | 68.9 | – | – | – | – | – | – | – | 0.13 | 0.0743 | 0.0769 | 197 ± 49 ×10^-6 s-1 | 2.350 ± 1.103 ×10^6 M-1 s-1 | 0.084 ± 0.045 | 1.0 ± 0.2 | – |
| CC[C@H](C)[C@H](NC(=O)[C@H](C)NC(=O)[C@H](C)NC(=O)[C@H](Cc1ccccc1)NC(=O)[C@H](C)NC(=O)[C@H](CC(=O)O)NC(=O)[C@H](CC(=O)O)NC(=O)[C@H](CCSC)NC(=O)[C@H](Cc1c[nH]c2ccccc12)NC(C)=O)C(=O)N[C@@H](CCSC)C(=O)N[C@@H](C)C(=O)N[C@H](C(=O)N[C@@H](Cc1c[nH]cn1)C(=O)NCC(=O)N[C@@H](CC(N)=O)C(=O)N[C@@H](CCC(=O)O)C(=O)N[C@@H](CC(C)C)C(=O)N[C@@H](CCCNC(=N)N)C(=O)N[C@@H](CCC(=O)O)C(=O)N[C@@H](CC(C)C)C(=O)N[C@@H](C)C(=O)N[C@@H](CC(=O)O)C(=O)N[C@@H](CCCCN)C(=O)O)C(C)C [peptide 5] (Ac-WMDDAFAAIMAVHGNELRELADK-OH; C-terminus assumed) | 23.4 ± 0.9 | 66.3 ± 0.1 | 66.3 | 66.3 | 66.2 | – | – | – | – | – | – | – | 0.0489 | 0.0513 | 0.0469 | 75 ± 5 ×10^-6 s-1 | 1.542 ± 0.147 ×10^6 M-1 s-1 | 0.049 ± 0.006 | 2.6 ± 0.2 | – |
